“Also recorded” adds a separate entry of the source. Starred links: 1 amine or outer side, 2 acyl side, 3 side chain; linkers in the order of their positions; H or OH if unused. Non-standard residues stand in square brackets, D forms with d. Residues, ends and D or L forms follow the SMILES beside them. *: point of attachment. hPhe = N[C@@H](CCc1ccccc1)C(=O)O; Morpholide = C1CN(*)CCO1; Cbz = O=C(OCc1ccccc1)*; CO = O=C([*:1])[*:2]; CH2F = FC*
How the values were obtained:
vimentin [1] = assay: Western blotting of HEL cell lysates with anti-vimentin antibody; type: cell-based, human; conditions: HEL cells; for effect on full-length vimentin, Jak2 vs non-Jak2 inhibitors: increasing concentrations; for cleavage of vimentin intermediate filaments in the viability samples: 30 μM G6 or 2% IDPN, 0, 6, 12, 24 or 48 hours
Method: Protein concentrations in the whole cell lysates were determined using a Bradford assay (Bio-Rad). Cell lysates were then resuspended in SDS sample buffer. Whole cell lysates (˜30 μg) were separated by SDS-PAGE and then transferred onto nitrocellulose membranes for analysis by western blotting.
(§1) Nitrocellulose membranes were first blocked with 5% milk/TBST solution at room temperature and then probed first with the different indicated primary antibodies overnight at 4° C. followed by the respective secondary antibodies (1:4000, GE Healthcare). The immuno-reactive bands were then visualized using the enhanced chemiluminescence system (Western Lightning Ultra, Perkin-Elmer). The following antibodies were used at the indicated dilutions: vimentin (Abcam and BD Biosciences, each at 1:500), STAT1 (Santa Cruz Biotechnology, 1:1000), and β-actin (Cell Signaling, 1:500).

vimentin [2] = assay: 2-D differential in gel electrophoresis (2-D DIGE) of HEL cell proteins; type: cell-based, human; conditions: HEL cells, 25 μM, 12 hours, vs 0.25% DMSO
Method: HEL cells treated either with vehicle control DMSO or 25 μM G6 for 12 hours. The cell pellets were resuspended in ice cold buffer containing 0.3% SDS, 20 mM Tris pH 8.0, 100 mM DTT, 10 μl protease inhibitor cocktail III (Calbiochem), 5 mM MgCl2 and 250 units of benzonase. The cell suspension was homogenized by sonication. Protein was precipitated with 9 volumes of ice cold 10% trichloroacetic acid (TCA) in acetone overnight at 4° C. Precipitated proteins were then dissolved in solubilization buffer (7 M urea, 2 M thiourea, 4% CHAPS, 0.2% SDS and 20 mM Tris, pH 8.0). After centrifugation at 43,000 rpm for 30 min, solubilized protein in the supernatant was quantified using the EZQ Protein Assay Kit (Invitrogen). Proteins (100 μg per sample) were minimally labeled with CyDye (GE Healthcare) as per the manufacturer's protocol. An internal standard, which is loaded on every gel, was created by mixing equal amounts of protein from all samples. Proteins from the DMSO treated samples were labeled with Cy3 (green) and the G6 treated samples were labeled with Cy5 (red). The internal standard was labeled with Cy2 (blue). […] The digital image was then analyzed with DeCyder 2D version 7.0 GE Healthcare). Information from replicate gels was analyzed with BVA Module (Biological Variation Analysis). […]

[3] = tested on: vimentin intermediate filaments; assay: Indirect immunofluorescence of vimentin in HEL cells; type: cell-based, human; conditions: 25 μM, 24 and 36 hr
Method: HEL cells were cultured in RPMI in 100 mm dishes and treated with 25 μM G6 for the indicated periods of time. Following treatment, the cells were centrifuged, washed and resuspended in 1×PBS. Cells were then plated onto poly-L-lysine coated 8-chamber slides (Santa Cruz Biotechnology) and fixed at −20° C. in a mixture of 50% methanol and 50% acetone for 10 minutes. The fixed cells were then permeabilized with 0.2% Triton X-100 and blocked with 5% goat serum for 30 minutes at room temperature. The samples were then incubated overnight at 4° C. with a primary antibody of mouse anti-vimentin (BD Biosciences, 1:100). The next day, the cells were washed 4× with PBS at room temperature. The samples were then incubated with a FITC-conjugated anti-mouse secondary antibody (Santa Cruz Biotechnology) for one hour at room temperature. The cells were again washed with PBS, mounted with UltraCruz DAPI containing mounting media (Santa Cruz Biotechnology) and sealed with a cover slip. These cells were imaged using a 100× objective on an inverted fluorescence microscope (Olympus).

HEL cells = assay: Cell proliferation assay (trypan blue exclusion, hemocytometer); type: cell-based, human; conditions: 30 μM G6 or 2% IDPN, 0, 6, 12, 24 or 48 hours, vs DMSO
Method: HEL cells were plated in 96-well plates and treated with either 0.25% DMSO, 30 μM G6 or 2% IDPN for the indicated periods of time. Cell viability was then assessed for each sample by trypan blue exclusion staining and hemocytometer.

vimentin protein = assay: Xenograft model of Jak2-V617F expressing HEL cells in NOD/SCID mice, bone marrow anti-vimentin immunohistochemistry; type: in vivo; conditions: NOD/SCID mice with HEL cells, 21 days
Excerpt: The xenograft model of Jak2-V617F expressing HEL cells in NOD/SCID mice has been described previously (15). Briefly, 3 months old NOD/SCID mice were randomized into 5 groups (n=6 per group). […] All other groups received a single tail vein injection of 2×10^6 Jak2-V617F positive HEL cells. Three weeks after HEL cell injection, the mice developed symptoms of a fully penetrant bone marrow malignancy. The mice then began receiving intraperitoneal injections of either vehicle control (DMSO) or G6 at doses of 0.1, 1, and 10 mg/kg/day for the next 21 days. At the end of the three week treatment period, all groups of mice were euthanized and bone marrow tissues were fixed in 10% neutral-buffered formalin and embedded in paraffin.
Paraffin embedded bone marrow sections from each treatment group were analyzed by antivimentin immunohistochemistry. Antigen retrieval was carried out first by microwaving at 95° C. for 20 min in 1 mM EDTA-NaOH solution, pH 8.0. The section were then cooled, blocked with Protein Block (DAKO), and incubated with antivimentin antibody (Abcam, 1:100) for 2 hours at room temperature. Antigen-antibody comeplexes were detected using biotinylated secondary antibodies and streptavidin-peroxidase substrate (DAKO). Stained sections were then analyzed via a standard light microscope (Nikon) at 40× and 100× magnifications.

[4] = tested on: Jak2-V617F-mediated HEL cell proliferation; conditions: previously demonstrated (14,15); cited from earlier work
caspase 3/7 = conditions: HEL cells, previously showed (15); cited from earlier work
PARP = assay: Western blotting of HEL cell lysates for PARP cleavage; type: cell-based, human; conditions: HEL cells, pretreated 4 hours, then 30 μM and 60 μM G6 for 24 hours
Method: Cells (˜107) were washed with two volumes of ice-cold PBS and then lysed in 0.8 ml of ice-cold RIPA buffer (20 mM Tris pH 7.5, 10% glycerol, 1% Triton X-100, 1% deoxycholic acid, 0.1% SDS, 2.5 mM EDTA, 50 mM NaF, 10 mM Na4P2O7, 4 mM benzamidine, and 10 μg/mL aprotinin). Protein concentrations in the whole cell lysates were determined using a Bradford assay (Bio-Rad). Cell lysates were then resuspended in SDS sample buffer. Whole cell lysates (˜30 μg) were separated by SDS-PAGE and then transferred onto nitrocellulose membranes for analysis by western blotting.
as §1

**Q.** Which “effect on full-length vimentin, Jak2 vs non-Jak2 inhibitors” value (“effect … vs non-Jak2 inhibitors” below) (vimentin [1]; 24 hours) does the source give for N#C/C(=C/c1ccc(O)c(O)c1)C(=O)NCc1ccccc1 [AG490] here?
**A.** induced cleavage of vimentin dose-dependently

**Q.** With CC(=O)OCOC(=O)CN(CC(=O)OCOC(C)=O)c1ccccc1OCCOc1ccccc1N(CC(=O)OCOC(C)=O)CC(=O)OCOC(C)=O [BAPTA-AM] as the compound, how does the “effect of pretreatment on G6-induced cleavage of vimentin” value (“effect of pretreatment … of vimentin” for short) (vimentin [1]; 10 μM BAPTA-AM 2 hours, then 30 μM G6 for 24 hours) read?
**A.** sufficient to protect vimentin from G6-induced cleavage

**Q.** With CC(C)[C@H](NC(=O)N1CCOCC1)C(=O)N[C@@H](CCc1ccccc1)C(=O)CF [Calpain Inhibitor V, Mu-Val-HPh-CH2F] ({Morpholide-CO}-Val-[hPhe]-CH2F) as the compound, how does the “effect of pretreatment … of vimentin” value (vimentin [1]; calpain inhibitor pretreatment 4 hours, then increasing doses of G6 for 24 hours) read?
**A.** prevented G6-induced cleavage of vimentin in a dose-dependent manner

**Q.** Which cleavage of vimentin (vimentin [1]; 10 μM, increasing periods of time) does the source give for CNc1ccc2oc(C[C@H]3O[C@@]4(CC[C@H]3C)O[C@H]([C@H](C)C(=O)c3ccc[nH]3)[C@H](C)C[C@H]4C)nc2c1C(=O)O [Compound A23187] here?
**A.** sufficient to induce cleavage of intermediate filament protein vimentin

**Q.** Which “vimentin protein expression (2-D DIGE)” value (vimentin [2]) does the source give for CCC(=C(CC)c1ccc(O)c(CN(CC)CC)c1)c1ccc(O)c(CN(CC)CC)c1 [Compound G6, 4,4′-(hex-3-ene-3,4-diyl)bis(2-((diethylamino)methyl)phenol)] here?
**A.** down regulated; also recorded: significantly downregulated

**Q.** What about the “full-length vimentin (western blot)” value (vimentin [1]; 25 μM, 24 h, vs DMSO) of the same compound?
**A.** disappearance of full-length vimentin

**Q.** What about the “cleavage of full-length vimentin as a function of time” value (vimentin [1]; 25 μM, varying lengths of time) of the same compound?
**A.** cleaved into low molecular weight fragments

**Q.** And the “cleavage of vimentin intermediate filaments in the viability samples” value (vimentin [1])?
**A.** time-dependent cleavage of vimentin intermediate filaments

**Q.** What about the “effect … vs non-Jak2 inhibitors” value (vimentin [1]; 24 hours) of the same compound?
**A.** induced cleavage of vimentin dose-dependently

**Q.** What about the “cleavage of full-length vimentin as a function of dose” value (vimentin [1]; increasing doses, 24 hours) of the same compound?
**A.** cleaved into low molecular weight fragments

**Q.** What about the “specificity for vimentin over other cytoskeletal proteins (β-actin reprobe)” value (vimentin [1]; same samples reprobed with anti-β-actin antibody) of the same compound?
**A.** specificity of G6 for vimentin over other cytoskeletal proteins such as β-actin

**Q.** And the “cellular distribution of vimentin” value [3]?
**A.** aggregated/localized in the perinuclear region of the cell

**Q.** And the viable cell numbers (HEL cells)?
**A.** time dependently decreased viable cell numbers

**Q.** What about the “bone marrow vimentin protein level vs DMSO treated mice” value (vimentin protein; 0.1 mg/kg/day intraperitoneal) of the same compound?
**A.** did not produce any observable change

**Q.** What about the “bone marrow vimentin protein level vs DMSO treated mice” value (vimentin protein; 1 mg/kg/day intraperitoneal) of the same compound?
**A.** clearly reduced the levels of vimentin protein

**Q.** What about the “bone marrow vimentin protein level vs DMSO treated mice” value (vimentin protein; 10 mg/kg/day intraperitoneal) of the same compound?
**A.** clearly reduced the levels of vimentin protein

**Q.** And the “Jak2-V617F-mediated HEL cell proliferation” value [4]?
**A.** inhibits Jak2-V617F-mediated HEL cell proliferation

**Q.** And the “apoptosis of HEL cells” value [4]?
**A.** induces apoptosis

**Q.** What about the “caspase 3/7 activation” value (caspase 3/7) of the same compound?
**A.** causes caspase 3/7 activation in a time-dependent manner

**Q.** Which “cleavage of vimentin intermediate filaments in the viability samples” value (vimentin [1]) does the source give for N#CCCNCCC#N [IDPN, 3′,3′-iminodipropiontrile, reference compound] here?
**A.** time-dependent cleavage of vimentin intermediate filaments

**Q.** And the viable cell numbers (HEL cells)?
**A.** time dependently decreased viable cell numbers

**Q.** For COc1cccc(-c2cc(=O)c3ccccc3o2)c1N [PD98059], which “effect … vs non-Jak2 inhibitors” value (vimentin [1]; 24 hours) is on record?
**A.** no effect on full-length vimentin

**Q.** For CC(C)(C)n1nc(-c2ccc(Cl)cc2)c2c(N)ncnc21 [PP2], which “effect … vs non-Jak2 inhibitors” value (vimentin [1]; 24 hours) is on record?
**A.** no effect on full-length vimentin

**Q.** For C[C@@H]1C[C@@H]([C@H](O)CC2CC(=O)NC(=O)C2)C(=O)[C@@H](C)C1 [cycloheximide], which “effect of pretreatment … of vimentin” value (vimentin [1]; cycloheximide pretreatment 4 h, then increasing concentrations of G6 for 24 hours) is on record?
**A.** not be blocked by pretreatment with cycloheximide

**Q.** With COC(=O)C[C@H](NC(=O)[C@H](C)NC(=O)[C@@H](NC(=O)OCc1ccccc1)C(C)C)C(=O)CF [zVAD-fmk, Z-VAD (OMe)-FMK] (Cbz-Val-Ala-Asp(OMe)-CH2F) as the compound, how does the “effect of pretreatment … of vimentin” value (vimentin [1]; pretreated 4 hours, then 30 μM and 60 μM G6 for 24 hours) read?
**A.** unable to prevent G6-induced cleavage of vimentin

**Q.** And the “effect of pretreatment on G6-induced cleavage of PARP” value (PARP)?
**A.** able to block the G6-induced cleavage of PARP

**Q.** Which “effect … vs non-Jak2 inhibitors” value (vimentin [1]; 24 hours) does the source give for Jak Inhibitor I here?
**A.** induced cleavage of vimentin dose-dependently

Reference: patent US20140248634A1, “VIMENTIN AS A BIOMARKER FOR THE PROGRESSION OF MYELOPROLIFERATIVE NEOPLASMS” (University of Florida Research Foundation, priority 2011, published 2014)
